# Results as given in ChEMBL document CHEMBL5104180, “Design, Synthesis, and Evaluation of New Sugar-Substituted Imidazole Derivatives as Selective c-MYC Transcription Repressors Targeting the Promoter G-Quadruplex” (J Med Chem, 2022).
# Calls of active or inactive are those of the source. No cut-off for these calls is given here.
# Assays:
# Quadruplex DNA [1] = experiment: Stabilization of c-MYC G4 quadruplex DNA Pu22 (unknown origin) assessed as change in melting temperature at 2 uM by CD spectroscopy; type: nucleic-acid assay
# Quadruplex DNA [2] = experiment: Binding affinity to c-MYC G4- quadruplex DNA Pu22 (unknown origin) assessed as binding constant by SPR analysis; type: nucleic-acid assay
# [3] = Binding affinity to G-rich KRAS DNA (unknown origin) assessed as binding constant by SPR analysis
# [4] = Binding affinity to G-rich HRAS DNA (unknown origin) assessed as binding constant by SPR analysis
# [5] = Binding affinity to G-rich NRAS RNA (unknown origin) assessed as binding constant by SPR analysis
# [6] = Binding affinity to human G-rich Htg22 DNA assessed as binding constant by SPR analysis
# [7] = Binding affinity to Hairpin DNA (unknown origin) assessed as binding constant by SPR analysis
# Quadruplex DNA [8] = experiment: Binding affinity to c-MYC G4 quadruplex DNA Pu22 (unknown origin) assessed as binding constant by SPR analysis; type: nucleic-acid assay
# RNA = experiment: Binding affinity to NRAS RNA mutant (unknown origin) assessed as binding constant by SPR analysis
# HepG2 [9] = experiment: Cytotoxicity against human HepG2 cells assessed as reduction in cell viability measured after 48 hrs by MTT assay; type: functional, cell-based; conditions: HepG2, 48 h
# MDA-MB-231 [10] = experiment: Cytotoxicity against human MDA-MB-231 cells assessed as reduction in cell viability measured after 48 hrs by MTT assay; type: functional, cell-based; conditions: MDA-MB-231, 48 h
# [11] = Cytotoxicity against human HBL-100 cells assessed as reduction in cell viability measured after 48 hrs by MTT assay; type: toxicity, cell-based
# [12] = tested on: NM23-H2/c-MYC G4 quadruplex DNA; experiment: Disruption of NM23-H2/c-MYC G4 quadruplex DNA (unknown origin) interaction incubated for 1 hrs by ELISA; type: protein assay
# [13] = tested on: BLM/c-MYC G4 quadruplex DNA; experiment: Disruption of BLM/c-MYC G4 quadruplex DNA (unknown origin) interaction incubated for 1 hrs by ELISA; type: protein assay
# [14] = tested on: DHX36/c-MYC G4 quadruplex DNA; experiment: Disruption of DHX36/c-MYC G4 quadruplex DNA (unknown origin) interaction incubated for 1 hrs by ELISA; type: protein assay
# Quadruplex DNA [15] = experiment: Binding affinity to 5' FAM-labeled c-MYC G4 quadruplex DNA Pu22 (unknown origin) by fluorescence quench assay; type: nucleic-acid assay
# Quadruplex DNA [16] = experiment: Binding affinity to 3' FAM-labeled c-MYC G4 quadruplex DNA Pu22 (unknown origin) by fluorescence quench assay; type: nucleic-acid assay
# MDA-MB-231 [17] = experiment: Cytotoxicity against human MDA-MB-231 cells measured after 48 hrs; type: functional, cell-based
# Quadruplex DNA [18] = experiment: Inhibition of c-MYC G4 quadruplex DNA in HEK293T cells co-transfected with Renilla and firefly luciferase assessed as decrease in relative luciferase at 2.5 to 5 uM measured after 24 hrs by dual luciferase reporter assay; type: cell-based; conditions: Homo sapiens, dose 2.5-5 µM
# Quadruplex DNA [19] = experiment: Inhibition of c-MYC G4 quadruplex DNA in HEK293T cells co-transfected with Renilla and firefly luciferase assessed as decrease in relative luciferase measured after 24 hrs by dual luciferase reporter assay; type: cell-based; conditions: Homo sapiens
# MDA-MB-231 [20] = experiment: Cytotoxicity against human MDA-MB-231 cells assessed as reduction in cell viability measured after 24 hrs; type: functional, cell-based
# MDA-MB-231 [21] = experiment: Downregulation of c-MYC mRNA level in human MDA-MB-231 cells measured after 24 hrs by RT-PCR analysis; type: functional, cell-based
# MDA-MB-231 [22] = experiment: Downregulation of c-MYC expression in human MDA-MB-231 cells measured after 48 hrs by western blot analysis; type: functional, cell-based
# [23] = tested on: NM23-H2/c-MYC G4 quadruplex DNA (Homo sapiens); experiment: Disruption of NM23-H2/c-MYC G4 quadruplex DNA interaction in MDA-MB-231 cells; type: cell-based
# Quadruplex DNA [24] = experiment: Inhibition of c-MYC G4 quadruplex DNA in human MDA-MB-231 cells assessed as decrease in c-MYC immunoprecipitation at 1.25 to 5 uM measured after 24 hrs by chromatin immunoprecipitation assay; type: cell-based; conditions: dose 1.25-5 µM
# MCF7 = experiment: Cytotoxicity against human MCF7 cells measured after 48 hrs; type: functional, cell-based
# HepG2 [25] = experiment: Cytotoxicity against human HepG2 cells measured after 48 hrs; type: functional, cell-based
# SiHa = experiment: Cytotoxicity against human SiHa cells measured after 48 hrs; type: functional, cell-based
# HBL-100 = experiment: Cytotoxicity against human HBL-100 cells measured after 48 hrs; type: toxicity, cell-based; conditions: hbl-100, 48 h
# NCM460 = experiment: Cytotoxicity against human NCM460 cells measured after 48 hrs; type: toxicity, cell-based; conditions: ncm460, 48 h
# MDA-MB-231 [26] = experiment: Anticancer activity against human MDA-MB-231 cells (OFP negative) expressing c-MYC G4 quadruplex DNA assessed as arrest of growth measured after 48 hrs by DAPI staining based orange fluorescent protein assay; type: functional, cell-based
# MDA-MB-231 [27] = experiment: Inhibition of colony formation in human MDA-MB-231 cells at 0.125 to 5 uM assessed as reduction in colony formation incubated for 10 days and subsequent media replacement with compound for every 2 days by crystal violet staining based assay; type: functional, cell-based; conditions: dose 0.125-5 µM, time 10.0 day
# MDA-MB-231 [28] = experiment: Inhibition of colony formation in human MDA-MB-231 cells at 5 uM assessed as reduction in colony formation incubated for 10 days and subsequent media replacement with compound for every 2 days by crystal violet staining based assay; type: functional; conditions: MDA-MB-231, 240 h, time 10 day
# MDA-MB-231 [29] = experiment: Antitumor activity against human MDA-MB-231 cells assessed as reduction in cell invasion measured after 24 hrs using crystal violet staining inverted microscope based transwell assay; type: functional; conditions: MDA-MB-231, 24 h
# MDA-MB-231 [30] = experiment: Induction of cell cycle arrest in human MDA-MB-231 cells assessed as accumulation at sub G0 phase at 5 uM after 24 hrs by propidium iodide staining based flow cytometric analysis; type: functional
# MDA-MB-231 [31] = experiment: Induction of apoptosis in human MDA-MB-231 cells assessed as early apoptosis at 5 uM measured after 24 hrs by AnnexinV/propidium iodide staining based flow cytometry; type: functional, cell-based
# MDA-MB-231 [32] = experiment: Induction of apoptosis in human MDA-MB-231 cells assessed as necrosis at 5 uM measured after 24 hrs by AnnexinV/propidium iodide staining based flow cytometry; type: functional, cell-based
# MDA-MB-231 [33] = experiment: Antitumor activity against human MDA-MB-231 cells xenografted in BALB/c-nu/nu mouse assessed as relative increment ratio at 2.5 mg/kg, ip measured for 24 days; type: functional; conditions: time 24 day
# MDA-MB-231 [34] = experiment: Antitumor activity against human MDA-MB-231 cells xenografted in BALB/c-nu/nu mouse assessed as tumor growth inhibition at 2.5 mg/kg, ip measured for 24 days; type: functional; conditions: MDA-MB-231, 576 h, time 24 day, read-out: TGI
# [35] = Toxicity in BALB/c-nu/nu mouse xenografted with human MDA-MB-231 cells assessed as change in body weight at 2.5 mg/kg, ip; type: organism-based; conditions: in vivo
# [36] = Toxicity in BALB/c-nu/nu mouse xenografted with human MDA-MB-231 cells assessed as effect on anatomized heart viscera at 2.5 mg/kg, ip measured after 24 hrs; type: organism-based; conditions: in vivo
# [37] = Toxicity in BALB/c-nu/nu mouse xenografted with human MDA-MB-231 cells assessed as effect on anatomized liver viscera at 2.5 mg/kg, ip measured after 24 hrs; type: organism-based; conditions: in vivo
# [38] = Toxicity in BALB/c-nu/nu mouse xenografted with human MDA-MB-231 cells assessed as effect on anatomized spleen viscera at 2.5 mg/kg, ip measured after 24 hrs; type: organism-based; conditions: in vivo
# [39] = Toxicity in BALB/c-nu/nu mouse xenografted with human MDA-MB-231 cells assessed as effect on anatomized lung viscera at 2.5 mg/kg, ip measured after 24 hrs; type: organism-based; conditions: in vivo
# [40] = Toxicity in BALB/c-nu/nu mouse xenografted with human MDA-MB-231 cells assessed as effect on anatomized kidney viscera at 2.5 mg/kg, ip measured after 24 hrs; type: organism-based; conditions: in vivo
# [41] = Toxicity in BALB/c-nu/nu mouse xenografted with human MDA-MB-231 cells assessed as side effects at 2.5 mg/kg, ip measured after 24 hrs; type: organism-based; conditions: in vivo
# MDA-MB-231 [42] = experiment: Antitumor activity against human MDA-MB-231 cells xenografted in BALB/c-nu/nu mouse assessed as decrease in c-MYC expression in tumor tissue; type: functional, cell-based
# MDA-MB-231 [43] = experiment: Induction of cell cycle arrest in human MDA-MB-231 cells assessed as decrease in accumulation at G2/M phase at 5 uM after 24 hrs by propidium iodide staining based flow cytometric analysis; type: functional
# MDA-MB-231 [44] = experiment: Antitumor activity against human MDA-MB-231 cells xenografted in BALB/c-nu/nu mouse assessed as relative increment ratio at 1 mg/kg, ip measured for 24 days; type: functional; conditions: time 24 day
# MDA-MB-231 [45] = experiment: Antitumor activity against human MDA-MB-231 cells xenografted in BALB/c-nu/nu mouse assessed as tumor growth inhibition at 1 mg/kg, ip measured for 24 days; type: functional; conditions: MDA-MB-231, 576 h, time 24 day, read-out: TGI
compound,measurement,setting,value
"CCn1c2ccccc2c2cc(-c3nc(-c4ccc(N5CCN(C)CC5)cc4)c(-c4ccc(N5CCN(C)CC5)cc4)n3-c3ccc(OCCOCCOC4(C)O[C@H]5O[C@H](CO)[C@@H](O)[C@H](O)[C@H]5O4)cc3)ccc21 (single isomer, unassigned)",ΔTm,Quadruplex DNA [1],20.3 °C
same,Kd,Quadruplex DNA [2],3.8 µM
same,Kd,[3],16.4 µM
same,Kd,[4],> 20 µM
same,Kd,[5],> 20 µM
same,Kd,[6],> 20 µM
same,Kd,[7],> 20 µM
same,Kd,Quadruplex DNA [8],> 20 µM
same,Kd,RNA,> 20 µM
same,IC50,HepG2 [9],5 µM
same,IC50,MDA-MB-231 [10],3.9 µM
same,IC50 at 48 h,[11],> 100 µM
same,IC50,[12],160 nM
same,IC50,[13],2300 nM
same,IC50,[14],7 µM
same,Kd,Quadruplex DNA [15],560 nM
same,Kd,Quadruplex DNA [16],2940 nM
same,Activity,MDA-MB-231 [17],Active
same,inhibition,Quadruplex DNA [18],Active
same,Activity,Quadruplex DNA [19],Active
same,Activity,MDA-MB-231 [20],Active
same,Activity,MDA-MB-231 [21],Active
same,Activity,MDA-MB-231 [22],Active
same,Activity,[23],Active
same,inhibition,Quadruplex DNA [24],Active
same,Activity,MCF7,Active
same,Activity,HepG2 [25],Active
same,Activity,SiHa,Active
same,Activity,HBL-100,Toxic
same,Activity,NCM460,Toxic
same,Activity,MDA-MB-231 [26],Active
same,inhibition,MDA-MB-231 [27],Active
same,inhibition at 5 µM,MDA-MB-231 [28],100%
same,IC50,MDA-MB-231 [29],7 µM
same,inhibition at 5 µM,MDA-MB-231 [30],20%
same,Activity,MDA-MB-231 [31],Active
same,Activity,MDA-MB-231 [32],Active
same,Activity,MDA-MB-231 [33],89.9%
same,inhibition in vivo at 2.5 mg/kg,MDA-MB-231 [34],87.8%
same,Activity,[35],Non-Toxic
same,Activity,[36],Non-Toxic
same,Activity,[37],Non-Toxic
same,Activity,[38],Non-Toxic
same,Activity,[39],Non-Toxic
same,Activity,[40],Non-Toxic
same,Activity,[41],Non-Toxic
same,Activity,MDA-MB-231 [42],Active
same,Activity,MDA-MB-231 [43],Active
COc1cccc2c1C(=O)c1c(O)c3c(c(O)c1C2=O)C[C@@](O)(C(=O)CO)C[C@@H]3O[C@H]1C[C@H](N)[C@H](O)[C@H](C)O1 [DOXORUBICIN],Activity,MDA-MB-231 [44],85.4%
same,inhibition in vivo at 1 mg/kg,MDA-MB-231 [45],80.2%
